These are literature values, as cited in patent US20260284040A1, “COMBINATION OF A PARP1 INHIBITOR AND A SELECTIVE ESTROGEN DEGRADER FOR TREATING CANCER” (ASTRAZENECA AB, priority 2023, published 2026).

In data set [1] the test system is human bone marrow progenitor cells. Particulars: in vitro.
The test system of data set [2] is ER+ cell lines and PDX models. Particulars: wide range of ER+ cell lines and PDX models, including ESR1m models.
For data set [3] the following is noted: in vivo.

Consider `CCc1cc2ncc(CN3CCN(c4ccc(C(=O)NC)nc4)CC3)cc2[nH]c1=O` [AZD5305, 5-{4-[(7-ethyl-6-oxo-5,6-dihydro-1,5-naphthyridin-3-yl)methyl]piperazin-1-yl}-N-methylpyridine-2-carboxamide], for which the “Effects on human bone marrow progenitor cells” value in data set [1] was “reduced effects”.

Regarding `C[C@@H]1Cc2c(ccc3[nH]ncc23)[C@@H](c2ccc(NC3CN(CCCF)C3)cn2)N1CC(F)(F)F` [Camizestrant, N-[1-(3-fluoropropyl)azetidin-3-yl]-6-[(6S,8R)-8-methyl-7-(2,2,2-trifluoroethyl)-6,7,8,9-tetrahydro-3H-pyrazolo[4,3-]isoquinolin-6-yl]-pyridin-3-amine], the Antitumour activities entry in data set [2] is reported as “demonstrated antitumour activities”. Further, the Oral bioavailability result in data set [3] is on record as “orally bioavailable”. Take `C[C@]12CC[C@@H]3c4ccc(O)cc4C[C@@H](CCCCCCCCC[S+]([O-])CCCC(F)(F)C(F)(F)F)[C@H]3[C@@H]1CC[C@@H]2O` (stereo partly shown) [fulvestrant]: the Oral bioavailability entry in data set [3] is “not orally bioavailable”.
